Measured values from a melting point compilation (Tetko et al.; mined from patent text by program, amines drawn as free bases though some values may be those of a salt).

| Structure (SMILES) | melting point [°C] |
| --- | --- |
| Brc1cnc(Sc2ncccn2)nc1 | 178 to 180 |
| COc1ccc(C(C)C)cc1-c1cc(-c2nnnn2C2CCN(C(=O)OC(C)(C)C)CC2)c(OCc2ccccc2)cc1OCc1ccccc1 | 77 to 81 |
| N#Cc1cn(-c2c(Cl)cc(C(F)(F)F)cc2Cl)cc1I | 118 to 120 |
| CN1CN(C)C(=O)N(C)C1=O | 88 to 90 |
| C=C(c1ccccc1)C(c1ccc(F)cc1)C(O)n1ncnc1S (stereo not given) | 54 to 58 |
| N#Cc1ccc(NCc2cc3c(cc2O)CCO3)s1 | 158 to 160 |
| CCOc1c(CO)cnc2c1cnn2CC | 100 to 102 |
| CNc1cccc(-c2ccc(C(=O)O)c(=O)[nH]2)c1 | 283 to 284 |
| O[C@@H]1CNC[C@H](c2ccc(C(F)(F)F)cc2)C1 (relative stereo) | 189 to 192 |
| CCc1c(C(=O)c2cccc(Cl)c2Cl)c2cccc(Br)c2n1CCCN(C)S(C)(=O)=O | 111 |
| CCCCCN1C(=O)C(CO)(c2ccc3c(c2)OCO3)c2ccccc21 (stereo not given) | 110 to 113 |
| CC(C)(C)OCCOCCn1cc(C(=O)NCc2ccc(Cl)cc2)c(=O)c2cc(CN3CCOCC3)ccc21 | 130 to 132 |
| Cc1ccc(CCc2ccccc2)c(OCC[C@@H]2C[C@@H](O)CN2C)c1 | 97 to 100 |
| CC(C)(C)OC(=O)Nc1cc(-c2nnc(CCc3cccc(C(F)(F)F)c3)o2)ccn1 | 256 to 257 |
| CCOC(=O)CCN1C(=O)NC(C)(CCc2cc(C(C)(C)C)c(O)c(C(C)(C)C)c2)C1=O (stereo not given) | 100 |
| CCCC1=C(CCC)C1(C(=O)Nc1ccc(Br)cc1C)C(=O)OC | 52 to 54 |
| CC1CCc2ccc(CC(=O)O)cc2C(=O)C1 (stereo not given) | 105 to 107 |
| CC(c1ccccc1)N1CC(C(C(N)=O)(c2ccccc2)c2ccccc2)C1 (stereo not given) | 153 to 154 |
| O=C(O)c1cnc2ccc(-c3ccc(C(F)(F)F)cc3)cn12 | 220 |
| Cn1nnnc1CC(=O)c1cc(F)c(Cl)cc1N | 180 to 184 |
| CC(C)NCC(O)c1ccccc1 (stereo not given) | 90 |
| COc1cc(COc2cc(Cn3cncn3)n(-c3ccccc3)n2)ccc1OCc1nc(-c2ccco2)oc1C | 95 to 96 |
| O=C(CS(=O)(=O)c1ccccc1)NNC(=O)N1Cc2ccccc2Oc2ccc(Cl)cc21 | 180 to 183 |
| O=C(O[C@H]1Cc2c(O)cc(O)cc2O[C@@H]1c1ccc(O)cc1)c1cc(O)c(O)c(O)c1 | 96 to 98 |
| O=S(=O)(c1ccccc1)c1ccc2c(c1)OCCN2CCN1C=CNC1 | 61.5 to 64.4 |

| Structure (SMILES) | melting point [°C] |
| --- | --- |
| CSC[C@H](NCc1ccccc1N)C(=O)O | 193 |
| CC(=O)N(C)N(C)c1ccc(CCn2cnc3cc(-c4ccc(Cl)cc4)sc3c2=O)cc1 | 227 to 228 |
| COC1CCC(O)C(CNC(C)=O)O1 (stereo not given) | 117 to 118 |
| COC(=O)c1sc2ccccc2c1NC(C)=O | 178 to 180 |
| Cc1noc(NC(=O)N2CCN(c3cc(-c4ccc(F)cc4F)ncn3)CC2)c1C | 198 to 199 |
| COc1ccc(OC)c(OCCCCl)c1 | 48 to 50 |
| CN(CC1CC(c2ccc(F)cc2)=NO1)C1CCC(c2ccc3[nH]c(=O)oc3c2)CC1 (stereo not given) | 109 to 114 |
| Cc1ccc(NC(=O)c2cnn3c(C(F)F)cc(-c4ccc(C(F)(F)F)cc4)nc23)cc1S(N)(=O)=O | 249 |
| CC(C)(C)c1ccc(-n2cnnc2C(F)(F)F)cc1 | 134 |
| Cc1ccc(NC(=O)N2C(=S)C3(CCCCC3)NC23CCCCC3)cc1 | 127 to 129 |
| O=C1/C(=C(\NC2CCCCC2)c2ccccc2)Sc2ccccc21 | 122 to 123 |
| COC(CN(C)C(=O)Nc1nnc(C(C)Oc2ccc(Cl)cc2Cl)s1)OC (stereo not given) | 125 to 127 |
| COC(=O)c1ccc2ncn(-c3ccc(OC)cc3)c2c1 | 112 to 113 |
| OC(CN1CCC(O)(Cc2ccccc2)CC1)c1ccc(F)cc1 (stereo not given) | 144 to 146 |
| O=C(NCCO)c1cccc(-c2cccc3nc(C(O)c4cccc(C(F)(F)F)c4)cn23)c1 (stereo not given) | 169 |
| Cc1cccc(NC(=O)NCC(=O)N(CC(=O)OC2(C)CCCC2)c2ccccc2)c1 | 160 |
| CC(O)(C(=O)Nc1ccc(S(=O)(=O)c2ccccc2)cc1)C(F)(F)F (stereo not given) | 164 to 166 |
| COC(=O)C(C)(C)CCCOc1cc(C)c(NC(C)=O)cc1C | 99 to 100 |
| O=C(O)c1cnn2c(C(F)(F)F)cc(-c3ccc(C(F)(F)F)c(F)c3)nc12 | 212 |
| COc1cc2ncnc(N3CCN(C(=S)NCc4ccc([N+](=O)[O-])cc4)CC3)c2cc1OC | 214 to 216 |
| Cc1cc(OCC(O)CNC(C)(C)C)ccc1C=O (stereo not given) | 82 to 84 |
| CS(=O)(=O)Nc1c(C(=O)c2ccccc2)[nH]c2cc(F)ccc12 | 166 to 168 |
| O=C(O)CCc1cc2cc(Cl)ccc2n1S(=O)(=O)c1ccccc1 | 165 to 168 |
| CN(CCN(C)C1=C(O)C(=O)c2ccccc2C1=O)Cc1ccccc1 | 121 to 123 |
| Nc1ccnc(Cl)c1Cl | 146 to 148 |

| Structure (SMILES) | melting point [°C] |
| --- | --- |
| CCC(=O)c1ccc2c(c1)N(C(C)=O)c1ccccc1S2 | 146 to 147 |
| CCOP(=O)(Cc1nnc2c(=O)[nH]c3ccc(Cl)cc3n12)OCC | 223 to 227 |
| CCc1n[nH]c(=O)n1N | 171 |
| Cn1cccc1C(=O)Nc1cccc(/C=C/C(=O)O)c1 | 202 to 204 |
| CSc1cc(CCC(=O)O)cc(-c2nc(=O)c3ccccc3s2)n1 | 236 |
| O=C(Oc1ccccc1)c1ccc(NS(=O)(=O)c2ccccc2)cc1Cl | 130 to 140 |
| O=S1(=O)NC(C2CCCCC2)Nc2ccc(-c3ccccc3Cl)cc21 (stereo not given) | 233 to 236 |
| CN1C(=O)N(CCN=C=O)C(C)(C)C1=O | 62 |
| Clc1cccc(CC[C@H]2CNCCN2)c1 | 93 to 97 |
| C=C(C)C(=O)OCCCc1ccc(-c2ccc(OC(=O)C(=C)C)cc2)cc1 | 69 |
| CCS(=O)(=O)c1cn(C)cc(-c2cccc(C(F)(F)F)c2)c1=O | 196 to 198 |
| COC(=O)NC1=NCC(c2ccccc2Br)CN1 (stereo not given) | 213 to 215 |
| CCCN(CCC)C(=O)COC1Cc2cccc(OCC(O)CNC(C)(C)C)c2CC1OCC(=O)N(CCC)CCC (stereo not given) | 124 to 134 |
| O=C1c2ccccc2C(=O)N1c1ccccc1CSc1nccn1-c1ccncc1 | 145 to 147 |
| Cc1ccc2ccc(C(=O)NCc3ccc(Cl)cc3)c(O)c2n1 | 95 to 98 |
| C#CCOc1ccc2c(c1)c(-c1ccc(C(C)C)cc1)nc(=O)n2Cc1cccc(NC(=O)CCl)c1 | 170 to 172 |
| CCCCC/C(=C\C=C\C(=S)NCCCCc1cccnc1)c1ccc(OC)cc1 | 121 to 122 |
| CC(=O)NC1c2ccccc2-c2[nH]c(=O)c3nccn3c21 (stereo not given) | 330 |
| COc1cccc(CCS(=O)c2nc3cnccc3[nH]2)c1 (stereo not given) | 125 to 128 |
| COc1ccc(COc2cccc(C(=O)Nc3ccc(S(C)=O)cc3)c2)cc1 (stereo not given) | 135 to 136 |
| CC(C)(C)OC(=O)Nc1cc(=O)c2cc(Oc3ccccc3)c(NS(C)(=O)=O)cc2o1 | 147 to 150 |
| CC(C)(C)OC(=O)Nc1cc(OCC#N)c(-c2ccc(F)cc2)cc1N | 118 to 119 |
| CN=C(NS(=O)(=O)c1ccc(C)cc1)N1CCc2nc(N)sc2C1 | 206 to 208 |
| CCc1ccc(-c2ccc(CCc3ccc(C)cc3)cc2)c(F)c1 | 65 |
| COc1cc(OC)nc(NC(=O)NS(=O)(=O)c2ccccc2-c2ccno2)n1 | 183 to 187 |

| Structure (SMILES) | melting point [°C] |
| --- | --- |
| O=S(=O)(C(=CNc1ccc(Br)cn1)S(=O)(=O)c1ccccc1)c1ccccc1 | 177 to 179 |
| CC(=O)OCCN1C(=O)N2CCOC2(c2ccccc2)c2cc(Cl)ccc21 (stereo not given) | 121 to 123 |
| N=C(N)Nc1nc(C(=O)NCCCC(CC(=O)O)c2ccccc2)cs1 (racemic) | 230 |
| COC(=O)c1nc2nc(COC(C)=O)cc(Cl)n2n1 | 120 |
| CC(=O)OC[C@H]1OC(O)[C@H](OC(C)=O)[C@@H](F)[C@@H]1OC(C)=O (stereo not given in full) | 115 to 120 |
| O=C(OC1CCCCC1)C1=C(c2ccccc2)C(c2ccccc2)OC1=O (stereo not given) | 139 to 142 |
| O=C(Nc1ccccc1)c1cc([N+](=O)[O-])ccc1Cl | 155 to 156 |
| Cc1nc(-c2ccc(C(=N)NO)cc2)sc1C(=O)N[C@H](C)[C@](O)(Cn1cncn1)c1ccc(F)cc1F | 135 to 148 |
| COC(=O)c1c[nH]c2ccc(N)cc12 | 217 to 219 |
| O=C1Cc2cc3c(CCC4CCN(Cc5ccccc5)CC4)noc3cc2N1 | 118 to 119 |
| O=C1CCCc2ccc(OCCCCN3CCN(c4cccc5c4OCCC5)CC3)nc2N1 | 186 to 187 |
| N#Cc1c[nH]c2cccc(OCc3ccccc3)c12 | 139 to 141 |
| CCOC(=O)c1c(C)nc(-c2ccccc2)nc1-c1cc([N+](=O)[O-])ccc1S(C)=O (stereo not given) | 130 to 132 |
| COc1cc2c(cc1OC)C(C(COC(=O)Nc1ccccc1)COC(=O)Nc1ccccc1)N(Cc1ccccc1)CC2 (stereo not given) | 185 |
| COC(=O)C(C)(C)N(OC(C)(C)C#N)C(C)(C)C | 78 to 85 |
| CC(=O)N1CCN(c2ccc(Nc3nccc(-c4sc(-c5ccc(N6CCOCC6)cc5)nc4C)n3)cc2)CC1 | 250 to 252 |
| COc1cc(Nc2c(C#N)cnc3cc(-c4ccc(CN5CCN(C)CC5)cc4)sc23)cc(OC)c1OC | 189 to 191 |
| CC(=NOc1ccc(Cl)cc1)c1ccc(C(F)(F)F)cc1NS(=O)(=O)C(F)(F)F | 89 to 90 |
| Cc1cc(C)c2nc(-c3cnc(NCCCC4CCN(C)CC4)nc3C)[nH]c2c1 | 179 |
| Nc1cc[nH]c(=O)c1Cl | 264 to 267 |
| O=C1CCCCC1C(C[N+](=O)[O-])c1ccc(OCc2ccccc2)cc1 (racemic) | 143 to 144 |
| CCCCCC[C@H](C)Oc1ccc(-c2ccc(O)cc2)cc1 | 100 |
| CC1(C)Oc2ccc(C#N)cc2C(Oc2ccncn2)C1(C)O (stereo not given) | 103 to 105 |
| O=C(Nc1cccc(C(F)(F)F)c1)c1ccc([N+](=O)[O-])cc1 | 210 |
| Cc1ccc(-n2c3c(c(=O)c4cccnc42)CCO3)cc1 | 246 to 248 |
